Patent publication US20100132057A1, “GENETICALLY MODIFIED ANIMAL FOR USE IN EVALUATING HARMFULNESS OF TEST SUBSTANCE” (priority 2008, published 2010)

Key:
[1] = system: reporter (luciferase) gene under AhR-binding enhancer of the TH gene and TH gene promoter in primary neuronal cells; experiment: Luciferase luminescence in primary neuronal cells isolated from genetically modified mouse during exposure to TCDD; type: cell-based; details: 24 hours, FIG. 9; for increase in the degree of luminescence from the unexposed case: primary neuronal cells of mouse #176 embryos (E12)
From the text: Another embodiment of the invention is directed to a method that includes isolating primary neuronal cells from the genetically modified mouse, exposing the primary neuronal cells to a test substance, and then measuring the expression of the reporter gene in the cells to evaluate the effect of the test substance on the central nervous system. When the reporter gene is a firefly luciferase gene, the method may include isolating primary neuronal cells from the genetically modified mouse, exposing the primary neuronal cells to a test substance, collecting the cells to extract proteins therefrom 2 to 72 hours after the exposure, adding luciferin, a substrate for the luciferase, to the liquid extract, and measuring luminescence derived from the enzyme activity of the luciferase with a luminometer.
The genetically modified mouse #176 (hetero, male) was mated with a wild-type mouse, and 12 days after the observation of the plug, the brain was removed from the embryo (E12: an embryonic age of 12 days) under a sterile environment. All the removed embryonic brains were collected, and 0.25% trypsin was added thereto and incubated at 37° C. for 15 minutes. The trypsin was removed. After washed tree times with the Hank's solution, the cells were suspended in a serum-containing DF 1:1 medium (Dulbecco-F12 equal-ratio mixture medium+10% fetal bovine serum). […]
[…] The resulting extracted protein solution was used in the measurement of luciferase luminescence. In the luciferase luminescence measurement, 100 μl of an assay solution (PicaGene Assay Kit, Toyo B-Net Co., Ltd.) was added to 10 μl of the collected protein solution and stirred, and immediately after the stirring, the degree of luminescence per 2 minutes was measured with a luminometer LB-940 (Berthold). The resulting degree of luminescence was divided by the total protein amount of the protein solution so that it was converted into a relative luminescence intensity (RLU/min/μg protein). The total protein amount of the solution was measured with a protein assay kit (Bio-Rad).

[2] = system: reporter (luciferase) gene under AhR-binding enhancer of the TH gene and TH gene promoter; experiment: Luciferase luminescence in genetically modified mouse during exposure to βNF (IVIS imaging); type: in vivo
Experimental: When the reporter gene is a firefly luciferase gene, the method may include administering luciferin, a substrate for the luciferase, by intraperitoneal injection to the genetically modified mouse 6 to 72 hours after the administration of the test substance to the genetically modified mouse and measuring luminescence derived from the individual or derived from the enzyme activity of the luciferase in the brain with a luminescence measurement system such as an In-Vivo Imaging System (IVIS), manufactured by Xenogen Corporation.
A dioxin analog, β-naphthoflavone (βNF), was used as a test substance. A solution of βNF in corn oil was intraperitoneally injected at a βNF dose of 40 mg/kg into each of the genetically modified mice #176 (4 weeks old), #177 (6 weeks old) and #184 (6 weeks old) in the T1 generation. The same amount of corn oil as the amount of the solution in the βNF-administered group was intraperitoneally administered to each of the control group mice (the genetically modified mice in the T1 generation). […] After 5 minutes, an In-Vivo Imaging System (IVIS 100-series), manufactured by Xenogen Corporation, was used to detect luciferase luminescence in the mice. […] In addition, the brain of the genetically modified mouse #176 was cut in the vicinity of the midbrain, and luminescence from the cut section was measured with the IVIS System.

| SMILES | change in the degree of luminescence with TCDD concentration ([1]; TCDD 0, 0.1 or 10 ng/ml, primary neuronal cells of mouse #176 embryos) | increase in the degree of luminescence from the unexposed case ([1]; exposure to 0.1 nM TCDD) | increase in the degree of luminescence from the unexposed case ([1]; exposure to 10 ng/ml TCDD) | luciferase luminescence in the mice ([2]; genetically modified mice #176, #177, #184 (T1 generation), βNF 40 mg/kg intraperitoneal in corn oil, 72 hours after administration, whole-body IVIS, FIG. 6) | degree of luminescence from cut brain section ([2]; genetically modified mouse #176, βNF 40 mg/kg intraperitoneal, brain cut in the vicinity of the midbrain, IVIS, FIG. 7) |
| --- | --- | --- | --- | --- | --- |
| Clc1cc2c(cc1Cl)Oc1cc(Cl)c(Cl)cc1O2 [TCDD, 2,3,7,8-tetrachlorodibenzo-p-dioxin] | TCDD concentration-dependent increase in the degree of luminescence | 1.3 times | 3.1 times | – | – |
| O=c1cc(-c2ccccc2)oc2ccc3ccccc3c12 [βNF, β-naphthoflavone] | – | – | – | luciferase luminescence was observed in all the genetically modified mice | an increase in the degree of luminescence was detected in the vicinity of the midbrain or hippocampus |
